Reference: ChEMBL document CHEMBL1123730, “Synthesis and pharmacological evaluation of a new class of 2-(2-aminothiazol-4-yl)-2-hydrazonoacetamido cephalosporins” (J Med Chem, 1987)
In brackets after ≈: the same amount, converted by molar mass. Each block holds one compound with its values, some of them ahead of it.

Columns and labels:
[1] = Geometrical average of minimum inhibitory concentration was determined in isosensitest broth against gram-positive strains.; format: functional
[2] = Geometrical average of minimum inhibitory concentration was determined in isosensitest broth against gram-negative strains.; format: functional
Staphylococcus [3] = assay: (§1) Geometrical average of minimum bactericidal concentration was determined in isosensitest broth against Staphylococcus; format: functional
Enterobacter [4] = assay: Geometrical average of minimum bactericidal concentration was determined in isosensitest broth against Enterobacter; format: functional
Alcaligenes [5] = assay: Geometrical average of minimum bactericidal concentration was determined in isosensitest broth against Alcaligenes; format: functional
Bacillus [6] = assay: Geometrical average of minimum bactericidal concentration was determined in isosensitest broth against Bacillus; format: functional
Staphylococcus [7] = assay: (§2) Geometrical average of minimum inhibitory concentration was determined in isosensitest broth against Staphylococcus; format: functional
[8] = Geometrical average of minimum inhibitory concentration in isosensitest broth against, gram-negative strains.; format: functional
Pseudomonas [9] = assay: Geometrical average of minimum inhibitory concentration was determined in isosensitest broth against Pseudomonas; format: functional
Klebsiella [10] = assay: Geometrical average of minimum inhibitory concentration was determined in isosensitest broth against Klebsiella; format: functional
Sarcina [11] = assay: Geometrical average of minimum inhibitory concentration was determined in isosensitest broth against Sarcina; format: functional
Serratia [12] = assay: Geometrical average of minimum bactericidal concentration was determined in isosensitest broth against Serratia; format: functional
Klebsiella pneumoniae [13] = assay: In vivo protective dose was determined in infected swiss mice (120/strain) infected ip with Klebsiella pneumoniae 102 with an inoculum size-0.5 mL of 10 E5 CFU/mL of suspension. Activity value range is 1.82-7.92; format: functional
Klebsiella pneumoniae [14] = assay: Minimum inhibitory concentration was determined against Klebsiella pneumoniae 102 with an inoculum size-0.5 mL of 10 E5 CFU/mL of suspension; format: functional
Proteus [15] = assay: Geometrical average of minimum bactericidal concentration was determined in isosensitest broth against Proteus; format: functional, Proteus sp.
Escherichia coli [16] = assay: Minimum inhibitory concentration was determined against Escherichia coli ISM with an inoculum size-0.5 mL of 10 E6 CFU/mL of suspension; format: functional
Serratia [17] = assay: Geometrical average of minimum inhibitory concentration was determined in isosensitest broth against Serratia; format: functional
Escherichia coli [18] = assay: In vivo protective dose was determined in infected swiss mice (120/strain) infected ip with Escherichia coli ISM with an inoculum size-0.5 mL of 10 E6 CFU/mL of suspension. Activity value range is 0.118-0.615; format: functional
Neisseria perflava [19] = assay: Geometrical average of minimum inhibitory concentration was determined in isosensitest broth against Neisseria perfl.; format: functional
Streptococcus [20] = assay: Geometrical average of minimum inhibitory concentration was determined in isosensitest broth against Streptococcus; format: functional
Bacillus [21] = assay: Geometrical average of minimum inhibitory concentration was determined in isosensitest broth against Bacillus; format: functional
Staphylococcus [22] = assay: as §2; format: functional; remark: listed apart in the source
Salmonella [23] = assay: Geometrical average of minimum bactericidal concentration was determined in isosensitest broth against Salmonella; format: functional
Enterobacter [24] = assay: Geometrical average of minimum inhibitory concentration was determined in isosensitest broth against Enterobacter; format: functional
Alcaligenes [25] = assay: Geometrical average of minimum inhibitory concentration was determined in isosensitest broth against Alcaligenes; format: functional
Staphylococcus [26] = assay: as §1; format: functional; remark: listed apart in the source
Proteus [27] = assay: Geometrical average of minimum inhibitory concentration was determined in isosensitest broth against Proteus; format: functional, Proteus sp.
Escherichia coli [28] = assay: Geometrical average of minimum bactericidal concentration was determined in isosensitest broth against Escherichia coli; format: functional
[29] = Geometrical average of minimum inhibitory concentration was determined in isosensitest broth against, gram-positive strains.; format: functional
Neisseria perflava [30] = assay: Geometrical average of minimum bactericidal concentration was determined in isosensitest broth against Neisseria perfl.; format: functional
Sarcina [31] = assay: Geometrical average of minimum bactericidal concentration was determined in isosensitest broth against Sarcina; format: functional
Streptococcus [32] = assay: Geometrical average of minimum bactericidal concentration was determined in isosensitest broth against Streptococcus; format: functional
Escherichia coli [33] = assay: Geometrical average of minimum inhibitory concentration was determined in isosensitest broth against Escherichia coli; format: functional
Klebsiella [34] = assay: Geometrical average of minimum bactericidal concentration was determined in isosensitest broth against Klebsiella; format: functional
Salmonella [35] = assay: Geometrical average of minimum inhibitory concentration was determined in isosensitest broth against Salmonella; format: functional
Pseudomonas [36] = assay: Geometrical average of minimum bactericidal concentration was determined in isosensitest broth against Pseudomonas; format: functional
Sarcina [37] = assay: Geometrical average of minimum bactericidal concentration was determined in isosensitest against Sarcina; format: functional
Sarcina [38] = assay: Geometrical average of minimum inhibitory concentration (MIC) in isosensitest broth against Sarcina; format: functional
Neisseria perflava [39] = assay: Geometrical average of minimum bactericidal concentration was determined in isosensitest against Neisseria perfl.; format: functional
[40] = Geometrical average of minimum inhibitory concentration was determined in isosensitest broth against,gram-negative strains.; format: functional
Bacillus [41] = assay: Geometrical average of minimum bactericidal concentration was determined in isosensitest against Bacillus; format: functional
Staphylococcus [42] = assay: (§3) Geometrical average of minimum bactericidal concentration was determined in isosensitest against Staphylococcus; format: functional
Klebsiella pneumoniae [43] = assay: In vivo protective dose was determined in infected swiss mice (120/strain) infected ip Klebsiella pneumoniae 102 with an inoculum size-0.5 mL of 10 E5 CFU/mL of suspension. Activity value range is 5.27-15.35; format: functional
Klebsiella pneumoniae [44] = assay: Minimum inhibitory concentration against Klebsiella pneumoniae 102 with an inoculum size-0.5 mL of 10 E5 CFU/mL of suspension; format: functional
Escherichia coli [45] = assay: In vivo protective dose was determined in infected swiss mice (120/strain) infected ip with Escherichia coli ISM with an inoculum size-0.5 mL of 10 E6 CFU/mL of suspension. Activity value range is 3.47-6.63; format: functional
Salmonella typhimurium [46] = assay: Minimum inhibitory concentration against Salmonella Typhimurium T.O with an inoculum size-0.5 mL of 10 E6 CFU/mL of suspension; format: functional, Salmonella enterica subsp. enterica serovar Typhimurium; details: Salmonella enterica
Alcaligenes [47] = assay: Geometrical average of minimum bactericidal concentration was determined in isosensitest against Alcaligenes; format: functional
Enterobacter [48] = assay: Geometrical average of minimum bactericidal concentration was determined in isosensitest against Enterobacter; format: functional
Escherichia coli [49] = assay: Minimum inhibitory concentration against, Escherichia coli ISM with an inoculum size-0.5 mL of 10 E6 CFU/mL of suspension); format: functional
Salmonella typhimurium [50] = assay: In vivo protective dose was determined in infected swiss mice (120/strain) infected ip against Salmonella Typhimurium T.O with an inoculum size-0.5 mL of 10 E6 CFU/mL of suspension; format: functional, Salmonella enterica subsp. enterica serovar Typhimurium; details: Salmonella enterica
Escherichia coli [51] = assay: Geometrical average of minimum bactericidal concentration was determined in isosensitest broth against, Escherichia coli; format: functional
Streptococcus [52] = assay: Geometrical average of minimum bactericidal concentration was determined in isosensitest against Streptococcus; format: functional
Staphylococcus [53] = assay: as §3; format: functional; remark: listed apart in the source

Compound: Cn1nnnc1SCC1=C(C(=O)O)N2C(=O)[C@@H](NC(=O)/C(=N/NC(N)=O)c3csc(N)n3)[C@H]2SC1
MIC [1]: 76.5 µg/mL (≈ 142 µM) | MIC [2]: 16.8 µg/mL (≈ 31.2 µM)

Compound: CO/N=C(\C(=O)N[C@@H]1C(=O)N2C(C(=O)O)=C(COC(C)=O)CS[C@H]12)c1csc(N)n1 [CEFOTAXIME]
MBC (Staphylococcus [3]): 3.23 µg/mL (≈ 7.09 µM) | MBC (Enterobacter [4]): 1.97 µg/mL (≈ 4.33 µM) | MBC (Alcaligenes [5]): 3.12 µg/mL (≈ 6.85 µM) | MBC (Bacillus [6]): 29.7 µg/mL (≈ 65.3 µM) | MIC (Staphylococcus [7]): 5.25 µg/mL (≈ 11.5 µM) | MIC [8]: 0.17 µg/mL (≈ 0.373 µM) | MIC (Pseudomonas [9]): 21.8 µg/mL (≈ 47.9 µM) | MIC (Klebsiella [10]): 0.12 µg/mL (≈ 0.263 µM) | MIC (Sarcina [11]): 0.04 µg/mL (≈ 0.0878 µM) | MBC (Serratia [12]): 0.49 µg/mL (≈ 1.08 µM) | ED50 (Klebsiella pneumoniae [13]): 3.8 mg/kg | MIC (Klebsiella pneumoniae [14]): 0.13 µg/mL (≈ 0.285 µM) | MBC (Proteus [15]): 0.3 µg/mL (≈ 0.659 µM) | MIC (Escherichia coli [16]): 0.55 µg/mL (≈ 1.21 µM) | MIC (Serratia [17]): 0.09 µg/mL (≈ 0.198 µM) | ED50 (Escherichia coli [18]): 0.27 mg/kg | MIC (Neisseria perflava [19]): < 0.09 µg/mL | MIC (Streptococcus [20]): 12.3 µg/mL (≈ 27.1 µM) | MIC (Bacillus [21]): 25 µg/mL (≈ 54.9 µM) | MIC (Staphylococcus [22]): 1.61 µg/mL (≈ 3.53 µM) | MBC (Salmonella [23]): 0.38 µg/mL (≈ 0.834 µM) | MIC (Enterobacter [24]): 0.31 µg/mL (≈ 0.681 µM) | MIC (Alcaligenes [25]): 1.56 µg/mL (≈ 3.43 µM) | MBC (Staphylococcus [26]): 25 µg/mL (≈ 54.9 µM) | MIC (Proteus [27]): 0.08 µg/mL (≈ 0.176 µM) | MBC (Escherichia coli [28]): 0.25 µg/mL (≈ 0.549 µM) | MIC [29]: 2.09 µg/mL (≈ 4.59 µM) | MBC (Neisseria perflava [30]): < 0.09 µg/mL | MBC (Sarcina [31]): 0.04 µg/mL (≈ 0.0878 µM) | MBC (Streptococcus [32]): 35.4 µg/mL (≈ 77.6 µM) | MIC (Escherichia coli [33]): 0.17 µg/mL (≈ 0.373 µM) | MBC (Klebsiella [34]): 0.14 µg/mL (≈ 0.307 µM) | MIC (Salmonella [35]): 0.24 µg/mL (≈ 0.527 µM) | MBC (Pseudomonas [36]): 22.3 µg/mL (≈ 48.9 µM)

Compound: CO/N=C(\C(=O)N[C@@H]1C(=O)N2C(C(=O)O)=C(COC(N)=O)CS[C@H]12)c1ccco1 [CEFUROXIME]
MBC (Sarcina [37]): 0.55 µg/mL (≈ 1.3 µM) | MIC (Sarcina [38]): 0.39 µg/mL (≈ 0.919 µM) | MIC (Staphylococcus [7]): 10.5 µg/mL (≈ 24.8 µM) | MIC (Pseudomonas [9]): > 100 µg/mL | MIC (Klebsiella [10]): 3.71 µg/mL (≈ 8.74 µM) | MBC (Neisseria perflava [39]): 0.78 µg/mL (≈ 1.84 µM) | MBC (Serratia [12]): 28 µg/mL (≈ 66 µM) | MIC [40]: 10.6 µg/mL (≈ 25.1 µM) | MBC (Bacillus [41]): 35.4 µg/mL (≈ 83.3 µM) | MBC (Proteus [15]): 3.9 µg/mL (≈ 9.19 µM) | MIC (Serratia [17]): 12.4 µg/mL (≈ 29.2 µM) | MBC (Staphylococcus [42]): 1.67 µg/mL (≈ 3.94 µM) | ED50 (Klebsiella pneumoniae [43]): 9 mg/kg | MIC (Neisseria perflava [19]): 0.39 µg/mL (≈ 0.919 µM) | MIC (Klebsiella pneumoniae [44]): 12.5 µg/mL (≈ 29.5 µM) | MIC (Streptococcus [20]): 15.1 µg/mL (≈ 35.7 µM) | MIC (Bacillus [21]): 35.4 µg/mL (≈ 83.3 µM) | MIC (Staphylococcus [22]): 1.06 µg/mL (≈ 2.5 µM) | ED50 (Escherichia coli [45]): 4.8 mg/kg | MBC (Salmonella [23]): 6.7 µg/mL (≈ 15.8 µM) | MIC (Enterobacter [24]): 7.01 µg/mL (≈ 16.5 µM) | MIC (Alcaligenes [25]): 50 µg/mL (≈ 118 µM) | MIC (Salmonella typhimurium [46]): 1.56 µg/mL (≈ 3.68 µM) | MIC (Proteus [27]): 1.97 µg/mL (≈ 4.64 µM) | MBC (Alcaligenes [47]): 100 µg/mL (≈ 236 µM) | MIC [29]: 1.11 µg/mL (≈ 2.62 µM) | MBC (Enterobacter [48]): 25 µg/mL (≈ 58.9 µM) | MIC (Escherichia coli [49]): 2.2 µg/mL (≈ 5.18 µM) | ED50 (Salmonella typhimurium [50]): > 90 mg/kg | MBC (Escherichia coli [51]): 4.42 µg/mL (≈ 10.4 µM) | MBC (Streptococcus [52]): 59.5 µg/mL (≈ 140 µM) | MIC (Escherichia coli [33]): 2.2 µg/mL (≈ 5.18 µM) | MBC (Klebsiella [34]): 4.68 µg/mL (≈ 11 µM) | MIC (Salmonella [35]): 3.12 µg/mL (≈ 7.35 µM) | MBC (Pseudomonas [36]): > 100 µg/mL | MBC (Staphylococcus [53]): 17.7 µg/mL (≈ 41.7 µM)

Further lines, results first:

MIC [1]: 18 µg/mL (≈ 32.5 µM) | MIC [2]: 8.59 µg/mL (≈ 15.5 µM)
Compound: Cn1nnnc1SCC1=C(C(=O)O)N2C(=O)[C@@H](NC(=O)/C(=N/NCC(=O)O)c3csc(N)n3)[C@H]2SC1

MIC [1]: 18.6 µg/mL (≈ 34.6 µM) | MIC [2]: 3.54 µg/mL (≈ 6.56 µM)
Compound: Cn1nnnc1SCC1=C(C(=O)O)N2C(=O)[C@@H](NC(=O)/C(=N\NC(N)=O)c3csc(N)n3)[C@H]2SC1

MIC [1]: 13.2 µg/mL (≈ 22.7 µM) | MIC [2]: 5.45 µg/mL (≈ 9.35 µM)
Compound: CCOC(=O)CN/N=C(/C(=O)N[C@@H]1C(=O)N2C(C(=O)O)=C(CSc3nnnn3C)CS[C@H]12)c1csc(N)n1

MIC [1]: 7.35 µg/mL (≈ 16.7 µM) | MIC [2]: 1.96 µg/mL (≈ 4.45 µM)
Compound: CC(=O)OCC1=C(C(=O)O)N2C(=O)[C@@H](NC(=O)/C(=N/N)c3csc(N)n3)[C@H]2SC1
